# Results taken from BindingDB's records for doi:10.1016/j.ejmech.2021.113474 (Yanbian University, 2021).
# Molecular target: Hypoxia-inducible factor 1-alpha (Homo sapiens, UniProt Q16665)
# Test: Inhibition of hypoxia-induced HIF1alpha transcriptional activity in human Hep3B cells co-transfected with luciferase reporter plasmid containing six copies of HREs and pRL-CMV vector assessed as reduction in luciferase activity incubated for 24 hrs under hypoxic condition by HRE-dependent dual luciferase reporter gene assay
# Chain of Hypoxia-inducible factor 1-alpha (Q16665 whole entry): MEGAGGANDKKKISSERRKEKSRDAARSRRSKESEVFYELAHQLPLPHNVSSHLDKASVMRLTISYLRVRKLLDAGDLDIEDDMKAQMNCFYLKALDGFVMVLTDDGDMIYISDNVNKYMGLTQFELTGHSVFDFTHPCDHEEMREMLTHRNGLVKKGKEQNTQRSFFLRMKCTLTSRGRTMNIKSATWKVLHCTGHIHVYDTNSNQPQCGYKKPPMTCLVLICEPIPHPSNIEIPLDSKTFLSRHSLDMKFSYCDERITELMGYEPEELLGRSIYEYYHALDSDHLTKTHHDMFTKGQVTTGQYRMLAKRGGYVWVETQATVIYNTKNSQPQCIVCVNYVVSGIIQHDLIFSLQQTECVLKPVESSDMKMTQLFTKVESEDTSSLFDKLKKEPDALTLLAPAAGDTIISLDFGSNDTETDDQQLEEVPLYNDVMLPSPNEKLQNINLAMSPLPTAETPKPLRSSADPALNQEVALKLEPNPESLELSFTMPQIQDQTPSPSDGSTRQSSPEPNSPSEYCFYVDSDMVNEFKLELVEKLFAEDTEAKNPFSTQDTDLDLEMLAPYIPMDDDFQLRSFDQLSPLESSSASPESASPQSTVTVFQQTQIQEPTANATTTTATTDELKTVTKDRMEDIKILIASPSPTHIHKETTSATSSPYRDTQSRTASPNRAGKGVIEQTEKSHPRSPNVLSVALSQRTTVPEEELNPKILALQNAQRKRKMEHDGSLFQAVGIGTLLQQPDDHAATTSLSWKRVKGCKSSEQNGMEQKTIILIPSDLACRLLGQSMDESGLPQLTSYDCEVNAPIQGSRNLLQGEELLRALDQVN
row,Compound,IC50
1,C=c1c(O)c(O)cc2c1=CC=C1[C@@]2(C)CC[C@@]2(C)[C@@H]3C[C@](C)(C(=O)O)CC[C@]3(C)CC[C@]12C,0.25 µM
2,CCOP(=O)(OCC)C(NC(=O)COC(=O)[C@]1(C)CC[C@]2(C)CC[C@]3(C)C4=CC=C5C(=CC(=O)C(O)=C5C)[C@]4(C)CC[C@@]3(C)[C@@H]2C1)c1ccccc1 (stereo not given in full),0.24 µM
3,CCOP(=O)(OCC)C(NC(=O)COC(=O)[C@]1(C)CC[C@]2(C)CC[C@]3(C)C4=CC=C5C(=CC(=O)C(O)=C5C)[C@]4(C)CC[C@@]3(C)[C@@H]2C1)c1ccc(F)cc1 (stereo not given in full),> 30 µM
4,CCOP(=O)(OCC)C(NC(=O)COC(=O)[C@]1(C)CC[C@]2(C)CC[C@]3(C)C4=CC=C5C(=CC(=O)C(O)=C5C)[C@]4(C)CC[C@@]3(C)[C@@H]2C1)c1ccc(C)cc1 (stereo not given in full),> 30 µM
5,CCOP(=O)(OCC)C(NC(=O)COC(=O)[C@]1(C)CC[C@]2(C)CC[C@]3(C)C4=CC=C5C(=CC(=O)C(O)=C5C)[C@]4(C)CC[C@@]3(C)[C@@H]2C1)c1ccc(OC)cc1 (stereo not given in full),0.16 µM
6,CC1=C(O)C(=O)C=C2C1=CC=C1[C@@]2(C)CC[C@@]2(C)[C@@H]3C[C@](C)(C(=O)OCC(=O)NCc4cn(-c5ccccc5)nn4)CC[C@]3(C)CC[C@]12C,0.6 µM
7,CC1=C(O)C(=O)C=C2C1=CC=C1[C@@]2(C)CC[C@@]2(C)[C@@H]3C[C@](C)(C(=O)OCC(=O)NCc4cn(-c5ccc(C)cc5)nn4)CC[C@]3(C)CC[C@]12C,> 30 µM
8,COc1ccc(-n2cc(CNC(=O)COC(=O)[C@]3(C)CC[C@]4(C)CC[C@]5(C)C6=CC=C7C(=CC(=O)C(O)=C7C)[C@]6(C)CC[C@@]5(C)[C@@H]4C3)nn2)cc1,> 30 µM
9,CC1=C(O)C(=O)C=C2C1=CC=C1[C@@]2(C)CC[C@@]2(C)[C@@H]3C[C@](C)(C(=O)OCC(=O)NCc4cn(-c5ccc(Cl)cc5)nn4)CC[C@]3(C)CC[C@]12C,> 30 µM
10,CC1=C(O)C(=O)C=C2C1=CC=C1[C@@]2(C)CC[C@@]2(C)[C@@H]3C[C@](C)(C(=O)OCC(=O)NCc4cn(-c5ccc(Cl)c(Cl)c5)nn4)CC[C@]3(C)CC[C@]12C,0.12 µM
11,CC1=C(O)C(=O)C=C2C1=CC=C1[C@@]2(C)CC[C@@]2(C)[C@@H]3C[C@](C)(C(=O)OCC(=O)Nc4cnc5ccccc5c4)CC[C@]3(C)CC[C@]12C,0.09 µM
12,CC1=C(O)C(=O)C=C2C1=CC=C1[C@@]2(C)CC[C@@]2(C)[C@@H]3C[C@](C)(C(=O)OCC(=O)Nc4ccnc5ccccc45)CC[C@]3(C)CC[C@]12C,0.49 µM
13,CC1=C(O)C(=O)C=C2C1=CC=C1[C@@]2(C)CC[C@@]2(C)[C@@H]3C[C@](C)(C(=O)OCC(=O)Nc4cccc5ncccc45)CC[C@]3(C)CC[C@]12C,0.36 µM
14,CC1=C(O)C(=O)C=C2C1=CC=C1[C@@]2(C)CC[C@@]2(C)[C@@H]3C[C@](C)(C(=O)OCC(=O)Nc4ccc5ncccc5c4)CC[C@]3(C)CC[C@]12C,0.24 µM
15,CC1=C(O)C(=O)C=C2C1=CC=C1[C@@]2(C)CC[C@@]2(C)[C@@H]3C[C@](C)(C(=O)OCC(=O)Nc4cccc5cccnc45)CC[C@]3(C)CC[C@]12C,0.35 µM
16,CC1=C(O)C(=O)C=C2C1=CC=C1[C@@]2(C)CC[C@@]2(C)[C@@H]3C[C@](C)(C(=O)OCCOc4cnc5ccccc5c4)CC[C@]3(C)CC[C@]12C,0.05 µM
17,CC1=C(O)C(=O)C=C2C1=CC=C1[C@@]2(C)CC[C@@]2(C)[C@@H]3C[C@](C)(C(=O)OCCOc4cccc5ncccc45)CC[C@]3(C)CC[C@]12C,> 30 µM
18,CC1=C(O)C(=O)C=C2C1=CC=C1[C@@]2(C)CC[C@@]2(C)[C@@H]3C[C@](C)(C(=O)OCCOc4ccc5cccnc5c4)CC[C@]3(C)CC[C@]12C,0.17 µM
19,CC1=C(O)C(=O)C=C2C1=CC=C1[C@@]2(C)CC[C@@]2(C)[C@@H]3C[C@](C)(C(=O)OCC(=O)Nc4ccncc4)CC[C@]3(C)CC[C@]12C,32 µM
20,CC1=C(O)C(=O)C=C2C1=CC=C1[C@@]2(C)CC[C@@]2(C)[C@@H]3C[C@](C)(C(=O)OCC(=O)Nc4ccc(F)cn4)CC[C@]3(C)CC[C@]12C,0.25 µM
21,CC1=C(O)C(=O)C=C2C1=CC=C1[C@@]2(C)CC[C@@]2(C)[C@@H]3C[C@](C)(C(=O)OCC(=O)Nc4ccc(F)nc4)CC[C@]3(C)CC[C@]12C,0.16 µM
22,CC1=C(O)C(=O)C=C2C1=CC=C1[C@@]2(C)CC[C@@]2(C)[C@@H]3C[C@](C)(C(=O)OCC(=O)Nc4cc(C)on4)CC[C@]3(C)CC[C@]12C,0.07 µM
23,CC1=C(O)C(=O)C=C2C1=CC=C1[C@@]2(C)CC[C@@]2(C)[C@@H]3C[C@](C)(C(=O)OCCOc4cc(C)oc(=O)c4)CC[C@]3(C)CC[C@]12C,0.15 µM
24,CC1=C(O)C(=O)C=C2C1=CC=C1[C@@]2(C)CC[C@@]2(C)[C@@H]3C[C@](C)(C(=O)OCCOc4cc(=O)oc5ccccc45)CC[C@]3(C)CC[C@]12C,0.15 µM
25,CC1=C(O)C(=O)C=C2C1=CC=C1[C@@]2(C)CC[C@@]2(C)[C@@H]3C[C@](C)(C(=O)OCCOc4ccc5ccc(=O)oc5c4)CC[C@]3(C)CC[C@]12C,0.08 µM
